Test results as given in patent US7211577B2, “Water-soluble phenylpyridazine derivative and medicine containing the same” (Kowa Co., Ltd., priority 2003, dated 2007).

SMILES | melting point
CC(C)Cn1nc(-c2ccc(F)c(F)c2)cc(CN2CCNCC2)c1=O.Cl.Cl | 182.5 to 186 °C
CC(C)Cn1nc(-c2ccc(F)c(F)c2)cc(CN(C)C)c1=O.Cl | 226.5 to 227.7 °C
Cc1cc(-c2cc(CN3CCNCC3)c(=O)n(Cc3ccccc3)n2)ccc1F.Cl.Cl | 162.7 to 180.7 °C (dec.)
Cc1cc(-c2cc(CN(C)C)c(=O)n(Cc3ccccc3)n2)ccc1F.Cl | 225.3 to 226 °C
Cc1cc(-c2cc(CN3CCNCC3)c(=O)n(CC=Cc3ccccc3)n2)ccc1F.Cl.Cl | 171.1 to 187.1 °C (dec.)
Cc1cc(-c2cc(CN(C)C)c(=O)n(CC=Cc3ccccc3)n2)ccc1F.Cl | 183.6 to 184.5 °C
Cc1cc(-c2cc(CN3CCNCC3)c(=O)n(CC=Cc3ccc(Cl)cc3)n2)ccc1F.Cl.Cl | 186.7 to 197 °C (dec.)
Cc1cc(-c2cc(CN(C)C)c(=O)n(CC=Cc3ccc(Cl)cc3)n2)ccc1F.Cl | 201.3 to 201.9 °C
CC(C)Cn1nc(-c2ccc([S+](C)[O-])cc2)cc(CN(C)C)c1=O.Cl (stereo not drawn) | 204.2 to 206 °C
Cc1cc(-c2cc(CN)c(=O)n(Cc3ccccc3Cl)n2)ccc1F.Cl | 201.9 to 206.4 °C
COc1ccc(-c2cc(CN3CCNCC3)c(=O)n(CC(C)C)n2)cc1F.Cl.Cl | 163 to 177 °C (dec.)
COc1ccc(-c2cc(CN(C)C)c(=O)n(CC(C)C)n2)cc1F.Cl | 212.4 to 212.8 °C
Cc1c(-c2ccccc2)nn(CC(C)C)c(=O)c1N1CCNCC1.Cl.Cl | 154.3 to 159.5 °C
CC(C)Cn1nc(-c2ccccc2)cc(CN(C)C)c1=O.Cl | 221.7 to 222.3 °C
Cc1c(-c2ccc(C(F)(F)F)cc2)nn(CC(C)C)c(=O)c1N1CCN(C)CC1.Cl.Cl | 249.9 to 252.8 °C
CC(C)Cn1nc(-c2ccc(C(F)(F)F)cc2)cc(CN(C)C)c1=O.Cl | 242.2 to 242.3 °C

SMILES | melting point
CC(C)Cn1nc(-c2ccc(-c3ccccc3)cc2)cc(CN(C)C)c1=O.Cl | 243.9 to 244.1 °C
COc1ccc(-c2cc(CN3CCNCC3)c(=O)n(CC(C)C)n2)cc1Cl.Cl.Cl | 203.6 to 204.5 °C
COc1ccc(-c2cc(CN(C)C)c(=O)n(CC(C)C)n2)cc1Cl.Cl | 213.6 to 214.3 °C
Cc1ccc(-c2cc(CN(C)C)c(=O)n(CC(C)C)n2)cc1F.Cl [Example 8, 4-dimethylaminomethyl-6-(3-fluoro-4-methylphenyl)-2-isobutyl-2H-pyridazin-3-one hydrochloride] | 246.5 to 248.5 °C
Cc1ccc(-c2cc(CN)c(=O)n(CC(C)C)n2)cc1 [Example 50, 4-aminomethyl-2-isobutyl-6-(4-methylphenyl)-2H-pyridazin-3-one] | 74.9 to 77.9 °C
Cc1ccc(-c2cc(CNC(CO)CO)c(=O)n(CC(C)C)n2)cc1 [Example 52, 4-(1,3-dihydroxypropan-2-yl)aminomethyl-2-isobutyl-6-(4-methylphenyl)-2H-pyridazin-3-one] | 134.1 to 135.2 °C
CSc1ccc(-c2cc(CN(C)C)c(=O)n(CC(C)C)n2)cc1.Cl [Example 161, 4-dimethylaminomethyl-2-isobutyl-6-[4-(methylthio)phenyl]-2H-pyridazin-3-one hydrochloride] | 216.8 to 218.4 °C
C#CCNCc1cc(-c2ccc(SC)cc2)nn(CC(C)C)c1=O.Cl [Example 163, 2-isobutyl-6-[4-(methylthio)phenyl]-4-propargylaminomethyl-2H-pyridazin-3-one hydrochloride] | 197.5 to 198.4 °C
COc1ccc(-c2cc(CN(C)C)c(=O)n(Cc3ccc(F)cc3)n2)cc1F [Example 190, 4-dimethylaminomethyl-2-(4-fluorobenzyl)-6-(3-fluoro-4-methoxyphenyl)-2H-pyridazin-3-one] | 127 to 129 °C
COc1ccc(-c2cc(CN3CCNCC3)c(=O)n(Cc3ccc(F)cc3)n2)cc1F [Example 192, 2-(4-fluorobenzyl)-6-(3-fluoro-4-methoxyphenyl)-4-(1-piperazinyl)methyl-2H-pyridazin-3-one] | 142 to 143 °C
COc1ccc(-c2cc(CN)c(=O)n(Cc3ccc(F)cc3)n2)cc1F [Example 194, 4-aminomethyl-2-(4-fluorobenzyl)-6-(3-fluoro-4-methoxyphenyl)-2H-pyridazin-3-one] | 145 to 149 °C
COc1ccc(-c2cc(CN(C)C)c(=O)n(CCCc3ccc(F)cc3)n2)cc1F [Example 197, 4-dimethylaminomethyl-6-(3-fluoro-4-methoxyphenyl)-2-[3-(4-fluorophenyl)propyl]-2H-pyridazin-3-one] | 97 to 100 °C
COc1ccc(-c2cc(CN)c(=O)n(CCCc3ccc(F)cc3)n2)cc1F [Example 200, 4-aminomethyl-6-(3-fluoro-4-methoxyphenyl)-2-[3-(4-fluorophenyl)propyl]-2H-pyridazin-3-one] | 82 to 84 °C
COc1ccc(-c2cc(CN(C)C)c(=O)n(Cc3ccc(Cl)cc3)n2)cc1F [Example 203, 2-(4-chlorobenzyl)-4-dimethylaminomethyl-6-(3-fluoro-4-methoxyphenyl)-2H-pyridazin-3-one] | 95.3 to 96.7 °C
COc1ccc(-c2cc(CN)c(=O)n(Cc3ccc(Cl)cc3)n2)cc1F [Example 205, 4-aminomethyl-2-(4-chlorobenzyl)-6-(3-fluoro-4-methoxyphenyl)-2H-pyridazin-3-one] | 128.5 to 131.4 °C
COc1ccc(-c2cc(CN(C)C)c(=O)n(Cc3ccc(F)c(F)c3)n2)cc1F [Example 208, 2-(3,4-difluorobenzyl)-4-dimethylaminomethyl-6-(3-fluoro-4-methoxyphenyl)-2H-pyridazin-3-one] | 129.9 to 130.4 °C

Continued, values first:

melting point | SMILES
242.5 to 243.4 °C | CC(C)Cn1nc(-c2ccc(F)c(F)c2)cc(CN2CCN(C)CC2)c1=O.Cl.Cl
240 to 242.5 °C (dec.) | Cc1cc(-c2cc(CN3CCN(C)CC3)c(=O)n(Cc3ccccc3)n2)ccc1F.Cl.Cl
236.1 to 237.1 °C | Cc1cc(-c2cc(CN3CCN(C)CC3)c(=O)n(CC=Cc3ccccc3)n2)ccc1F.Cl.Cl
248.5 to 253.7 °C (dec.) | CSc1ccc(-c2cc(CN3CCNCC3)c(=O)n(CC(C)C)n2)cc1.Cl.Cl
242.6 to 243.7 °C | CSc1ccc(-c2cc(CN3CCN(C)CC3)c(=O)n(CC(C)C)n2)cc1.Cl.Cl
80 °C (dec.) | CN1CCN(Cc2cc(-c3ccc([S+](C)[O-])cc3)nn(CC3CC3)c2=O)CC1.Cl.Cl (stereo not drawn)
224.5 to 229.1 °C (dec.) | CC(C)Cn1nc(-c2ccc([S+](C)[O-])cc2)cc(CN2CCN(C)CC2)c1=O.Cl.Cl (stereo not drawn)
209 to 211.4 °C | CN1CCN(Cc2cc(-c3ccc(S(C)(=O)=O)cc3)nn(CC3CC3)c2=O)CC1.Cl.Cl
239.5 to 240.7 °C | CN(C)Cc1cc(-c2ccc(S(C)(=O)=O)cc2)nn(CC2CC2)c1=O.Cl
222.4 to 224.2 °C | CC(C)Cn1nc(-c2ccc(S(C)(=O)=O)cc2)cc(CN2CCNCC2)c1=O.Cl.Cl
224.5 to 228 °C | CC(C)Cn1nc(-c2ccc(S(C)(=O)=O)cc2)cc(CN2CCN(C)CC2)c1=O.Cl.Cl
221.4 to 223.3 °C | CC(C)Cn1nc(-c2ccc(S(C)(=O)=O)cc2)cc(CN(C)C)c1=O.Cl
186.2 to 195 °C (dec.) | Cc1ccc(-c2cc(CN3CCNCC3)c(=O)n(CC(C)C)n2)cc1F.Cl.Cl
246.4 to 249.7 °C (dec.) | Cc1cc(-c2cc(CN3CCN(C)CC3)c(=O)n(Cc3ccc(Cl)cc3)n2)ccc1F.Cl.Cl
191 to 202 °C (dec.) | Cc1cc(-c2cc(CN3CCN(C)CC3)c(=O)n(Cc3ccccc3Cl)n2)ccc1F.Cl.Cl
236.9 to 237 °C | COc1ccc(-c2cc(CN3CCN(C)CC3)c(=O)n(CC(C)C)n2)cc1F.Cl.Cl
243.8 to 244.3 °C | CC(C)Cn1nc(-c2ccccc2)cc(CN2CCN(C)CC2)c1=O.Cl.Cl
248.5 to 252 °C (dec.) | Cc1ccc(-c2cc(CN3CCN(C)CC3)c(=O)n(CC(C)C)n2)cc1F.Cl.Cl
210.8 to 212.5 °C | CC(C)Cn1nc(-c2ccc(C(F)(F)F)cc2)cc(CN2CCNCC2)c1=O.Cl.Cl
226.8 to 228 °C | CC(C)Cn1nc(-c2ccc(-c3ccccc3)cc2)cc(CN2CCNCC2)c1=O.Cl.Cl
262.2 to 263.6 °C | CC(C)Cn1nc(-c2ccc(-c3ccccc3)cc2)cc(CN2CCN(C)CC2)c1=O.Cl.Cl
235.8 to 236.7 °C | COc1ccc(-c2cc(CN3CCN(C)CC3)c(=O)n(CC(C)C)n2)cc1Cl.Cl.Cl
169.1 to 170.7 °C | CNCc1cc(-c2ccc(OC)c(F)c2)nn(CC2CC2)c1=O [Example 9, 2-cyclopropylmethyl-6-(3-fluoro-4-methoxyphenyl)-4-methylaminomethyl-2H-pyridazin-3-one]
111.5 to 118 °C | COc1ccc(-c2cc(CN3CCNCC3)c(=O)n(CC3CC3)n2)cc1F [Example 20, 2-cyclopropylmethyl-6-(3-fluoro-4-methoxyphenyl)-4-(1-piperazinyl)methyl-2H-pyridazin-3-one]
112 to 113 °C | COc1ccc(-c2cc(CN3CCN(C)CC3)c(=O)n(Cc3ccc(F)cc3)n2)cc1F [Example 189, 2-(4-fluorobenzyl)-6-(3-fluoro-4-methoxyphenyl)-4-(4-methyl-1-piperazinyl)methyl-2H-pyridazin-3-one]
135.4 to 136 °C | COc1ccc(-c2cc(CN3CCN(C)CC3)c(=O)n(Cc3ccc(F)c(F)c3)n2)cc1F [Example 207, 2-(3,4-difluorobenzyl)-6-(3-fluoro-4-methoxyphenyl)-4-(4-methyl-1-piperazinyl)methyl-2H-pyridazin-3-one]
123.9 to 125.5 °C | COc1ccc(-c2cc(CN3CCN(C)CC3)c(=O)n(CC=Cc3ccc(Cl)cc3)n2)cc1F [Example 209, 2-(4-chlorocinnamyl)-6-(3-fluoro-4-methoxyphenyl)-4-(4-methyl-1-piperazinyl)methyl-2H-pyridazin-3-one]
133.3 to 133.8 °C | Cc1cc(-c2cc(CN3CCN(C)CC3)c(=O)n(Cc3ccc(Cl)cc3)n2)ccc1F [Example 222, 2-(4-chlorobenzyl)-6-(4-fluoro-3-methylphenyl)-4-(4-methyl-1-piperazinyl)methyl-2H-pyridazin-3-one]
